According to US12037583B2, “Compositions and methods for immunooncology” (Novartis AG, priority 2015, dated 2024):

Experiments:
PDCD1 = assay: NGS editing of PDCD1 by dgRNA in HEK cells stably expressing Cas9; format: cell-based, human; details: at least 3 experiments;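 note: dgRNA lipofected into Cas9-expressing HEK cells, lysed after 24 h, target amplicon sequenced, editing = reads carrying insertions or deletions as percent of all reads including wild type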
CIITA = assay: NGS editing and frameshift edit of CIITA by dgRNA in HEK293 cells expressing Cas9; format: cell-based, human; details: HEK293 cells stably expressing Cas9, dgRNA to CIITA; for Avg. % Edit: N = 3; for Avg. % FS: frameshift edit
Procedure: Editing of CIITA with dgRNAs targeted to the CIITA gene were assayed in HEK293 cells engineered to express Cas9, as described above in Example 1.

| Substance | HEK (NGS) % Editing Mean (PDCD1) | Avg. % Edit (CIITA) | Avg. % FS (CIITA) |
| --- | --- | --- | --- |
| CR000824: dgRNA targeting domain to PDCD1 (guide UCAGGCGGAGGUGAGCGGAA; targeting domain within dual guide RNA, chemistry not given here, further chemistry not given here; listed as Homo sapiens) | 54% |  |  |
| CR000825: dgRNA targeting domain to PDCD1 (guide CUCAGGCGGAGGUGAGCGGA; targeting domain within dual guide RNA, chemistry not given here, further chemistry not given here; listed as Homo sapiens) | 46% |  |  |
| CR000826: dgRNA targeting domain to PDCD1 (guide ACUGCUCAGGCGGAGGUGAG; targeting domain within dual guide RNA, chemistry not given here, further chemistry not given here; listed as Homo sapiens) | 70% |  |  |
| CR000827: dgRNA targeting domain to PDCD1 (guide GCUCACCUCCGCCUGAGCAG; targeting domain within dual guide RNA, chemistry not given here, further chemistry not given here; listed as Homo sapiens) | 39% |  |  |
| CR000828: dgRNA targeting domain to PDCD1 (guide CUUCUCCACUGCUCAGGCGG; targeting domain within dual guide RNA, chemistry not given here, further chemistry not given here; listed as Homo sapiens) | 69% |  |  |
| CR000829: dgRNA targeting domain to PDCD1 (guide CAGUGGAGAAGGCGGCACUC; targeting domain within dual guide RNA, chemistry not given here, further chemistry not given here; listed as Homo sapiens) | 68% |  |  |
| CR000830: dgRNA targeting domain to PDCD1 (guide UGGAGAAGGCGGCACUCUGG; targeting domain within dual guide RNA, chemistry not given here, further chemistry not given here; listed as Homo sapiens) | 57% |  |  |
| CR000831: dgRNA targeting domain to PDCD1 (guide GGAGAAGGCGGCACUCUGGU; targeting domain within dual guide RNA, chemistry not given here, further chemistry not given here; listed as Homo sapiens) | 66% |  |  |
| CR000832: dgRNA targeting domain to PDCD1 (guide GAGAAGGCGGCACUCUGGUG; targeting domain within dual guide RNA, chemistry not given here, further chemistry not given here; listed as Homo sapiens) | 49% |  |  |
| CR000833: dgRNA targeting domain to PDCD1 (guide AGGCGCCCUGGCCAGUCGUC; targeting domain within dual guide RNA, chemistry not given here, further chemistry not given here; listed as Homo sapiens) | 34% |  |  |
| CR000835: dgRNA targeting domain to PDCD1 (guide GCCCUGGCCAGUCGUCUGGG; targeting domain within dual guide RNA, chemistry not given here, further chemistry not given here; listed as Homo sapiens) | 69% |  |  |
| CR000836: dgRNA targeting domain to PDCD1 (guide CACCGCCCAGACGACUGGCC; targeting domain within dual guide RNA, chemistry not given here, further chemistry not given here; listed as Homo sapiens) | 5% |  |  |
| CR000840: dgRNA targeting domain to PDCD1 (guide GGGCGGUGCUACAACUGGGC; targeting domain within dual guide RNA, chemistry not given here, further chemistry not given here; listed as Homo sapiens) | 59% |  |  |
| CR000841: dgRNA targeting domain to PDCD1 (guide CGGUGCUACAACUGGGCUGG; targeting domain within dual guide RNA, chemistry not given here, further chemistry not given here; listed as Homo sapiens) | 19% |  |  |
| CR000842: dgRNA targeting domain to PDCD1 (guide CACCUACCUAAGAACCAUCC; targeting domain within dual guide RNA, chemistry not given here, further chemistry not given here; listed as Homo sapiens) | 40% |  |  |
| CR000843: dgRNA targeting domain to PDCD1 (guide GAGAAGGUGGGGGGGUUCCA; targeting domain within dual guide RNA, chemistry not given here, further chemistry not given here; listed as Homo sapiens) | 8% |  |  |

| Substance | HEK (NGS) % Editing Mean (PDCD1) | Avg. % Edit (CIITA) | Avg. % FS (CIITA) |
| --- | --- | --- | --- |
| CR000844: dgRNA targeting domain to PDCD1 (guide CGGUCACCACGAGCAGGGCU; targeting domain within dual guide RNA, chemistry not given here, further chemistry not given here; listed as Homo sapiens) | 25% |  |  |
| CR000845: dgRNA targeting domain to PDCD1 (guide UCGGUCACCACGAGCAGGGC; targeting domain within dual guide RNA, chemistry not given here, further chemistry not given here; listed as Homo sapiens) | 21% |  |  |
| CR000846: dgRNA targeting domain to PDCD1 (guide GCCCUGCUCGUGGUGACCGA; targeting domain within dual guide RNA, chemistry not given here, further chemistry not given here; listed as Homo sapiens) | 46% |  |  |
| CR000847: dgRNA targeting domain to PDCD1 (guide CCCUUCGGUCACCACGAGCA; targeting domain within dual guide RNA, chemistry not given here, further chemistry not given here; listed as Homo sapiens) | 77% |  |  |
| CR000848: dgRNA targeting domain to PDCD1 (guide CCCUGCUCGUGGUGACCGAA; targeting domain within dual guide RNA, chemistry not given here, further chemistry not given here; listed as Homo sapiens) | 65% |  |  |
| CR000849: dgRNA targeting domain to PDCD1 (guide CCCCUUCGGUCACCACGAGC; targeting domain within dual guide RNA, chemistry not given here, further chemistry not given here; listed as Homo sapiens) | 29% |  |  |
| CR000850: gRNA targeting domain to PDCD1, CCUGCUCGUGGUGACCGAAG (SEQ ID NO: 5746) (targeting domain within guide RNA, chemistry not given here, further chemistry not given here; listed as Homo sapiens) | 55% |  |  |
| CR000851: dgRNA targeting domain to PDCD1 (guide GAAGGUGGCGUUGUCCCCUU; targeting domain within dual guide RNA, chemistry not given here, further chemistry not given here; listed as Homo sapiens) | 4% |  |  |
| CR000852: dgRNA targeting domain to PDCD1 (guide GUUGGAGAAGCUGCAGGUGA; targeting domain within dual guide RNA, chemistry not given here, further chemistry not given here; listed as Homo sapiens) | 72% |  |  |
| CR000853: gRNA targeting domain to PDCD1, CACGAAGCUCUCCGAUGUGU (SEQ ID NO: 5749) (targeting domain within guide RNA, chemistry not given here, further chemistry not given here; listed as Homo sapiens) | 33% |  |  |
| CR000854: dgRNA targeting domain to PDCD1 (guide CGGAGAGCUUCGUGCUAAAC; targeting domain within dual guide RNA, chemistry not given here, further chemistry not given here; listed as Homo sapiens) | 24% |  |  |
| CR000855: dgRNA targeting domain to PDCD1 (guide UCUGGUUGCUGGGGCUCAUG; targeting domain within dual guide RNA, chemistry not given here, further chemistry not given here; listed as Homo sapiens) | 61% |  |  |
| CR000857: dgRNA targeting domain to PDCD1 (guide AGCUUGUCCGUCUGGUUGCU; targeting domain within dual guide RNA, chemistry not given here, further chemistry not given here; listed as Homo sapiens) | 1% |  |  |
| CR003025 (guide GUGACUGGCAGUCUCCUAGU; targeting domain within dual guide RNA, chemistry not given here, further chemistry not given here; listed as Homo sapiens) |  | 24.52% | 19.21% |
| CR003026 (guide AGUCGCUCACUGGUCCCACU; targeting domain within dual guide RNA, chemistry not given here, further chemistry not given here; listed as Homo sapiens) |  | 29.63% | 20.05% |
